Assay results as given in patent US8551524B2, “Anti-diabetic combinations” (priority 2007, dated 2013).

Details: human, in vivo
Description: a. […] Laboratory results were then reviewed for these particular patients to determine which patients actually had clinically important changes in a given laboratory parameter.

| SMILES | patients with adverse events [%] | clinically important decreases in any hematological parameter directly attributable to the drug | responsibility for clinically meaningful elevations in ALT and AST |
| --- | --- | --- | --- |
| CN(C)C(=N)N=C(N)N [metformin] | 10 | – | – |
| N[C@@H](CC(=O)N1CCn2c(nnc2C(F)(F)F)C1)Cc1cc(F)c(F)cc1F [sitagliptin] | 8 | No patient experienced clinically important decreases | not responsible for the variations |
